Measured values published in ChEMBL document CHEMBL1156479, “Reversine increases the plasticity of lineage-committed mammalian cells” (Proc Natl Acad Sci U S A, 2007).

Key:
[1] = target: Dual specificity mitogen-activated protein kinase kinase 1 (Mus musculus, UniProt P31938); test: Inhibition of MEK1 in mouse C2C12 by ERK2 phosphorylation assay
[2] = test system: C2C12; test: Inhibition of myotube formation in mouse C2C12 myoblasts at 20 nM; conditions: C2C12, read-out: INH
[3] = Inhibition of ATPase activity of myosin 2 in mouse C2C12 myoblast assessed as release of inorganic phosphates

Dual specificity mitogen-activated protein kinase kinase 1, sequence (P31938 whole entry): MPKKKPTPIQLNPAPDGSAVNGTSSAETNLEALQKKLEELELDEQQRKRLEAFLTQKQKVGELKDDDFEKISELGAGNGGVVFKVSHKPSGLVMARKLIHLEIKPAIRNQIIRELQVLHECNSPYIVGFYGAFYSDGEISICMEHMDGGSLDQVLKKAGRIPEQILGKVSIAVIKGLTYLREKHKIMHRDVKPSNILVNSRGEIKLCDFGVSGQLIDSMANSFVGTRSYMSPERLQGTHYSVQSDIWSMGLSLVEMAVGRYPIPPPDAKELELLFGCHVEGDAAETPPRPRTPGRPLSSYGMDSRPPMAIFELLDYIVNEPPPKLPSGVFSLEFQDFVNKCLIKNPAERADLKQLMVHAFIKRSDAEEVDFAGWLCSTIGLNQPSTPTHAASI

## c1nc2c(NC3CCCCC3)nc(Nc3ccc(N4CCOCC4)cc3)nc2[nH]1 [REVERSINE]
[1]
  IC50: 8 nM
[2]
  inhibition at 0.02 µM: > 60%
[3]
  IC50: 10 nM
